Assay [1] has as its target Dipeptidyl peptidase 2 (Homo sapiens, UniProt Q9UHL4). Put plainly: hDPP7 Inhibition Assay. As for the experimental part:
Table 4: Compounds were tested in a biochemical inhibition assay using human dipeptidylpeptidase 7 (hDPP7) enzyme at 15 nM FAC (BPS Bioscience, #80070) and the substrate Ala-Pro-amino-methylcoumarin (BPS Bioscience, #80305) at 5 μM FAC. The enzymatic reactions were conducted in duplicate at rt for 30 min in 50 μL DPP assay buffer (BPS Bioscience, #80300). Compound solutions (in DMSO) at 10 CR, 3 fold dilution series were prepared in assay buffer ten-fold higher than the final concentration, and 5 μL of the dilution was added to a 50 μL reaction so that the highest compound concentration was 100 μM FAC and the concentration of DMSO was 1% in all wells. The plates were read on a Tecan Infinite M1000 microplate reader with excitation 340 nm and emission 460 nm. Data were analyzed in Graph Pad Prism. IC50 values were determined by plotting % inhibition versus log compound concentration and using a one site dose response model. Raw data signals were normalized using 1% DMSO as 0% control and no enzyme as 100% inhibitor control.

Assay [2] deals with T1, Prolyl endopeptidase FAP (Homo sapiens, UniProt Q12884).
T1 sequence (Q12884 whole entry): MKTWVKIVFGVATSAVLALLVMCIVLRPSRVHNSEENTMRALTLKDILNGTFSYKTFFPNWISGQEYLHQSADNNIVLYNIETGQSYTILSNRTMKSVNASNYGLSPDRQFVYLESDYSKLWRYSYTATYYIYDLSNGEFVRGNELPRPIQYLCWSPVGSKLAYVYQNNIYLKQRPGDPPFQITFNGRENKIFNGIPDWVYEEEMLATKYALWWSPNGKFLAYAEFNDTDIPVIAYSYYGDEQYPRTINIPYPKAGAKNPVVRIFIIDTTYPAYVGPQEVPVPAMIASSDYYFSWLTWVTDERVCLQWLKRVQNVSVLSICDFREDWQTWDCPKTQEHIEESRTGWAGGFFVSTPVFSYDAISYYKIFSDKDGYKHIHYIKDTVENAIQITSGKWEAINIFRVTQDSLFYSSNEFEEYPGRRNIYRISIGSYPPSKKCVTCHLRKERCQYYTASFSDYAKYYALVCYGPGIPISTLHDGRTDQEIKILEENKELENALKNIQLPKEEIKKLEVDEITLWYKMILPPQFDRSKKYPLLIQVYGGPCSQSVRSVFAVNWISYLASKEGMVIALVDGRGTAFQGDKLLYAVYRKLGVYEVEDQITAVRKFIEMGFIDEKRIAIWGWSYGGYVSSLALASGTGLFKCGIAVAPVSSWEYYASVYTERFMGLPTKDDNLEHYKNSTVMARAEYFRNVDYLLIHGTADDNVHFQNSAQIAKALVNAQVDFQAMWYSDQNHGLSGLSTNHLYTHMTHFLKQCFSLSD
Nature of the assay: hFAP Binding Assay. As to conditions: for kon: read-out: kon (M-1-s-1).
Experimental: Table 1: Compounds were tested in a direct binding assay using 8K surface plasmon resonance biosensor (GE Healthcare) at 20° C. Immobilization of hFAP (M39-A757) on a CMD200M sensor chip (Xantec) was performed using standard amine coupling procedure in immobilization buffer (10 mM HEPES, 150 mM NaCl, 0.05% Tween20, pH 7.4). The surface was washed with 10 mM NaOH, 1M NaCl before being activated with EDC/NHS (GE Healthcare), followed by immobilization of hFAP (in 10 mM Acetate pH 5.0). Finally, the surface was deactivated by ethanolamine. Immobilization levels of hFAP were around 4000-6000 RU. The reference spot was treated as described, omitting the injection of hFAP. Compound concentration series were injected over the immobilized protein in increasing concentrations (2-500 nM) using single cycle kinetics in running buffer (20 mM TRIS, 150 mM NaCl, 0.05% Tween20, 1% DMSO, pH 7.4).

In BindingDB's records for patent US20230312550 (Astrazeneca, 2023) one finds IC50, koff and kon data, which are given here for 33 molecules.

Where only a bound is given, the exact number is not on record here.

By IC50 is commonly meant the concentration needed to halve the response being measured. The low end stands for higher potency, the high end for lower potency. In assay [1], `Cc1cc(N2CCOCC2)cc2c(C(=O)NCC(=O)N3CSC[C@H]3C#N)ccnc12` [US20230312550, Example 9] displayed an IC50 of over 100 µM. Broadly, the koff is a measure of how fast the partners let go of each other. For orientation: kon means the second-order rate constant of association. As to `CC1(CS(C)(=O)=O)CN(c2ccc3nccc(C(=O)NCC(=O)N4CSC[C@H]4C#N)c3c2)C1` [US20230312550, Example 188], in assay [2], the dissociation rate constant (koff) is 2.2e-05 s⁻¹ and the association rate constant (kon) stood at 2.6e+06 M⁻¹ s⁻¹.

Turning to `N#C[C@@H]1CSCN1C(=O)CNC(=O)c1ccnc2ccc(N3CC4(CC4)C[C@@H]3CF)cc12` [US20230312550, Example 58], in assay [2], the koff is 0.091 s⁻¹ and the association rate constant (kon) stood at 8.8e+09 M⁻¹ s⁻¹. For `CC1(C)CN(c2ccc3nccc(C(=O)NCC(=O)N4CSC[C@H]4C#N)c3c2)C(=O)O1` [US20230312550, Example 13], in assay [2], the koff was 7.6e-05 s⁻¹ and the kon worked out at 9.2e+06 M⁻¹ s⁻¹. For `N#C[C@@H]1CSCN1C(=O)CNC(=O)c1ccnc2ccc(-c3ccc(F)cn3)cc12` [US20230312550, Example 125], in that order: 0.00014 s⁻¹ and 3e+06 M⁻¹ s⁻¹. Turning to `N#C[C@@H]1CSCN1C(=O)CNC(=O)c1ccnc2ccc(N3C[C@H]4CCC[C@@H](C3)O4)cc12` [US20230312550, Example 194], in assay [2], the dissociation rate constant (koff) was found to be 6.8e-05 s⁻¹ and the kon was determined as 1.1e+06 M⁻¹ s⁻¹.

In the case of `N#C[C@@H]1CSCN1C(=O)CNC(=O)c1ccnc2ccc(N3CCCC[C@H](F)C3)cc12` [US20230312550, Example 60], in assay [2], the koff was 0.00017 s⁻¹ and the association rate constant (kon) was 1.7e+06 M⁻¹ s⁻¹. Take `CC1(C)CCN(c2ccc3nccc(C(=O)NCC(=O)N4CSC[C@H]4C#N)c3c2)C1` [US20230312550, Example 48]: in assay [2], the koff turned out to be 8.9e-05 s⁻¹ and the kon turned out to be 1.4e+06 M⁻¹ s⁻¹.

Consider `N#C[C@@H]1CSCN1C(=O)CNC(=O)c1ccnc2ccc(N3CC4(CC(C(F)(F)F)C4)C3)cc12` [US20230312550, Example 150], for which, in assay [2], the koff is 4.3e-05 s⁻¹ and the kon was 280000 M⁻¹ s⁻¹. As for `N#C[C@@H]1CSCN1C(=O)CNC(=O)c1ccnc2ccc(N3C4CCC3COC4)cc12` [US20230312550, Example 98], in assay [2], the off-rate constant (koff) amounted to 1.5e-05 s⁻¹ and the kon stood at 1.6e+06 M⁻¹ s⁻¹. For the molecule `N#C[C@@H]1CSCN1C(=O)CNC(=O)c1ccnc2ccc(N3CC(OC(F)F)C3)cc12` [US20230312550, Example 136], in assay [2], the off-rate (koff) was 5e-05 s⁻¹ and the on-rate constant (kon) amounted to 2e+06 M⁻¹ s⁻¹.

For `CC(C)n1nccc1-c1ccc2nccc(C(=O)NCC(=O)N3CSC[C@H]3C#N)c2c1` [US20230312550, Example 197], in assay [2], the koff amounted to 6.6e-05 s⁻¹ and the on-rate (kon) turned out to be 88000 M⁻¹ s⁻¹. On to `N#C[C@@H]1CSCN1C(=O)CNC(=O)c1ccnc2ccc(N3CC4(CCCC4(F)F)C3)cc12` [US20230312550, Example 141], for which, in assay [2], the koff amounted to 7.8e-05 s⁻¹ and the on-rate (kon) is 1.4e+06 M⁻¹ s⁻¹. Take `CC(C)C1(O)CCN(c2ccc3nccc(C(=O)NCC(=O)N4CSC[C@H]4C#N)c3c2)CC1` [US20230312550, Example 192]: in assay [2], the off-rate constant (koff) is 1.4e-05 s⁻¹ and the kon stood at 1.3e+06 M⁻¹ s⁻¹. For `N#C[C@@H]1CSCN1C(=O)CNC(=O)c1ccnc2ccc(N3C[C@H]4C[C@@H]3CO4)cc12` [US20230312550, Example 76], in that order: 5.2e-05 s⁻¹ and 1e+06 M⁻¹ s⁻¹. For `C[C@@H]1CCN(c2ccc3nccc(C(=O)NCC(=O)N4CSC[C@H]4C#N)c3c2)C1=O` [US20230312550, Example 202], in that order: 7e-05 s⁻¹ and 1.6e+06 M⁻¹ s⁻¹. In the same order, the values of `N#C[C@@H]1CSCN1C(=O)CNC(=O)c1ccnc2ccc(-c3ccnn3[C@H]3CCCCO3)cc12` [US20230312550, Example 176] are 0.00022 s⁻¹ and 120000 M⁻¹ s⁻¹. Consider `C[C@@H]1CCCN(c2ccc3nccc(C(=O)NCC(=O)N4CSC[C@H]4C#N)c3c2)C1=O` [US20230312550, Example 204], for which, in assay [2], the dissociation rate constant (koff) is 5.8e-05 s⁻¹ and the kon was 850000 M⁻¹ s⁻¹. As to `CC1(CC(F)F)CN(c2ccc3nccc(C(=O)NCC(=O)N4CSC[C@H]4C#N)c3c2)C1` [US20230312550, Example 133], in assay [2], the off-rate (koff) was found to be 7.3e-05 s⁻¹ and the kon was 1.2e+06 M⁻¹ s⁻¹. `C[C@@H]1CN(c2ccc3nccc(C(=O)NCC(=O)N4CSC[C@H]4C#N)c3c2)C[C@H](C)[C@@H]1O` [US20230312550, Example 7]: in assay [2], the koff is 7.5e-05 s⁻¹ and the on-rate (kon) was 740000 M⁻¹ s⁻¹.

With `COC[C@H]1[C@H](C)OCCN1c1ccc2nccc(C(=O)NCC(=O)N3CSC[C@H]3C#N)c2c1` [US20230312550, Example 96], in assay [2], the koff was found to be 0.00022 s⁻¹ and the kon amounted to 4e+06 M⁻¹ s⁻¹. As to `Cc1cc2nccc(C(=O)NCC(=O)N3CSC[C@H]3C#N)c2cc1N1CCOCC1` [US20230312550, Example 10], in assay [2], the koff came out at 5.6e-05 s⁻¹ and the kon turned out to be 370000 M⁻¹ s⁻¹. With `N#C[C@@H]1CSCN1C(=O)CNC(=O)c1ccnc2ccc(N3C[C@@H]4C[C@H]3CO4)cc12` [US20230312550, Example 75], in assay [2], the koff was determined as 2.4e-05 s⁻¹ and the kon turned out to be 2.3e+06 M⁻¹ s⁻¹.

Regarding `N#C[C@@H]1CSCN1C(=O)CNC(=O)c1ccnc2ccc(N3CC(CC(F)F)C3)cc12` [US20230312550, Example 144], in assay [2], the koff was determined as 0.00051 s⁻¹ and the kon came out at 9.1e+06 M⁻¹ s⁻¹.

Regarding `CC(C)OC1CCN(c2ccc3nccc(C(=O)NCC(=O)N4CSC[C@H]4C#N)c3c2)CC1` [US20230312550, Example 43], in assay [2], the koff worked out at 1.9e-05 s⁻¹ and the kon turned out to be 3.2e+06 M⁻¹ s⁻¹. `COc1ccc(-c2ccc3nccc(C(=O)NCC(=O)N4CSC[C@H]4C#N)c3c2)cn1` [US20230312550, Example 178]: in assay [2], the koff is 0.00017 s⁻¹ and the kon was found to be 3.1e+06 M⁻¹ s⁻¹. As for `N#C[C@@H]1CSCN1C(=O)CNC(=O)c1ccnc2ccc(N3CC4(CCC4)C3)cc12` [US20230312550, Example 17], in assay [2], the koff was determined as 0.00012 s⁻¹ and the on-rate constant (kon) is 8.3e+06 M⁻¹ s⁻¹. On to `N#C[C@@H]1CSCN1C(=O)CNC(=O)c1ccnc2ccc(N3C[C@@H]4[C@H](C3)[C@H]4C(F)(F)F)cc12` [US20230312550, Example 208], for which, in assay [2], the koff came to 0.00026 s⁻¹ and the kon turned out to be 5.6e+06 M⁻¹ s⁻¹. In the case of `N#C[C@@H]1CSCN1C(=O)CNC(=O)c1ccnc2ccc(N3CC(C(F)(F)F)C3)cc12` [US20230312550, Example 26], in assay [2], the koff stood at 6.5e-05 s⁻¹ and the kon was 1.3e+06 M⁻¹ s⁻¹. On to `N#C[C@@H]1CSCN1C(=O)CNC(=O)c1ccnc2ccc(N3CCC(F)(F)CC3)cc12` [US20230312550, Example 35], for which, in assay [2], the koff worked out at 0.0001 s⁻¹ and the kon came to 900000 M⁻¹ s⁻¹. For `N#C[C@@H]1CSCN1C(=O)CNC(=O)c1ccnc2ccc(N3C[C@@H]4CC[C@H]3C4)cc12` (mixture of isomers) [US20230312550, Example 210], in that order: 9.8e-05 s⁻¹ and 3.8e+06 M⁻¹ s⁻¹. On to `N#C[C@@H]1CSCN1C(=O)CNC(=O)c1ccnc2ccc(N3CC(F)C3)cc12` [US20230312550, Example 21], for which, in assay [2], the dissociation rate constant (koff) was 0.0002 s⁻¹ and the association rate constant (kon) was 3e+06 M⁻¹ s⁻¹. With `N#C[C@@H]1CSCN1C(=O)CNC(=O)c1ccnc2ccc(N3CC(F)(C4CC4)C3)cc12` [US20230312550, Example 31], in assay [2], the koff was 0.00024 s⁻¹ and the kon is 9.7e+06 M⁻¹ s⁻¹.
